Patent US20130303533A1, “AZOLOPYRIDINE AND AZOLOPYRIMIDINE COMPOUNDS AND METHODS OF USE THEREOF” (AMBIT BIOSCIENCES CORPORATION, priority 2010, published 2013)

How the values were obtained:
[1] = system: GM-CSFR/JAK2/STAT5 pathway; experiment: CSTF-1 cell-based reporter assay; conditions: Homo sapiens; csTF-1 cells, GM-CSF at 2 ng/mL, 4 hours, beta-lactamase reporter; read-out: Cell Assay: CS TF-1 reporter assay IC50
Method: CSTF-1 Cell-Based Reporter Assay
CSTF-1 cells are derived from the human erythroleukemia cell line that is growth dependent on GM-CSF and has an intact GM-CSFR/JAK2/STAT5 pathway. The cell line contains stably integrated beta-lactamase reporter gene under the control of the […] (irf 1) response element recognized by the activated transcription factor STAT5. csTF-1 cells (Invitrogen K1219) were washed with assay media (97% OPTIMEM/0.5% dialyzed FBS/0.1 mM NEAA/1 mM Na pyr/P/S) and seeded in the same media at 5×10^5 cell/mL in T150 flask. After 16 hour incubation, cells were seeded at 2×10^5 cell/well in 50 μl volume, into Costar, clear bottom, 96-well assay plates. Serial dilutions of compounds were added to the plates with final DMSO concentration at 0.5% and GM-CSF at 2 ng/mL and the plates were then incubated at 30° C. and 5% CO2 for 4 hours. The plates were brought to room temperature before adding Substrate Mixture according to manufacturer's protocol (Invitrogen, Catalog #K1085). The assay plates containing the substrate mixture were incubated in the dark at room temperature for 2 hours. Blue and green fluorescence was measured with excitation at 409 nm and emission at 460 nm (for blue) and excitation at 409 nm and emission at 530 nm (for green) using Spectra Max Gemini EM.

JAK2 = target: T1, JAK2 (Homo sapiens, UniProt O60674); experiment: Competition binding assay to determine binding constants (Kd), JAK2
T1 construct: made in house; host or cells: T7 phage display or HEK-293 cells (alternatives)
From the text: (§1) Competition Binding Assay to Determine Binding Constants (Kd) of the Compounds Against JAK Kinases
(§2) Competition binding assays used herein were developed, validated and performed as described in Fabian et al., Nature Biotechnology 2005, 23, 329-336. Kinases were produced as fusions to T7 phage (See, Fabian et al. or WO04/015142) or alternatively, the kinases were expressed in HEK-293 cells and subsequently tagged with DNA for PCR detection (See, WO08/005,310). For the binding assays, streptavidin-coated magnetic beads were treated with biotinylated affinity ligands for 30 min at rt to generate affinity resins. The liganded beads were blocked with excess biotin and washed with blocking buffer (SeaBlock (Pierce), 1% BSA, 0.05% Tween 20, 1 mM DTT) to remove unbound ligand and to reduce non-specific binding. Binding reactions were assembled by combining kinase, liganded affinity beads, and test compounds in 1× binding buffer (20% SeaBlock, 0.17×PBS, 0.05% Tween 20, 6 mM DTT). Test compounds were prepared as 100× stocks in DMSO and rapidly diluted into the aqueous environment. DMSO was added to control assays lacking a test compound. Primary screen interactions were performed in polypropylene 384-well plates in a final volume of 34 μL, while Kd determinations were performed in polystyrene 96-well plates in a final volume of 135 μL. The assay plates were incubated at room temperature with shaking for 1 hour, long enough for binding reactions to reach equilibrium, and the affinity beads were washed extensively with wash buffer (1×PBS, 0.05% Tween 20) to remove unbound protein. The beads were then resuspended in elution buffer (1×PBS, 0.05% Tween 20, 2 μM non-biotinylated affinity ligand) and incubated at room temperature with shaking for 30 min. The kinase concentration in the eluates was measured by quantitative PCR. Each kinase was tested individually against each compound. Kds were determined using eleven serial threefold dilutions. A selectivity score, which is a quantitative measure of selectivity of a compound against a panel of enzymes, may be calculated for a compound by dividing the number of enzymes for which a compound meets a set criteria, (for example, a binding constant of 100 nM or less), by the total number of enzymes tested.

JAK3 = target: T2, JAK3 (Homo sapiens, UniProt P52333); experiment: Competition binding assay to determine binding constants (Kd), JAK3
T2 construct: made in house; host or cells: T7 phage display or HEK-293 cells (alternatives)
T2 sequence (P52333 1-1124): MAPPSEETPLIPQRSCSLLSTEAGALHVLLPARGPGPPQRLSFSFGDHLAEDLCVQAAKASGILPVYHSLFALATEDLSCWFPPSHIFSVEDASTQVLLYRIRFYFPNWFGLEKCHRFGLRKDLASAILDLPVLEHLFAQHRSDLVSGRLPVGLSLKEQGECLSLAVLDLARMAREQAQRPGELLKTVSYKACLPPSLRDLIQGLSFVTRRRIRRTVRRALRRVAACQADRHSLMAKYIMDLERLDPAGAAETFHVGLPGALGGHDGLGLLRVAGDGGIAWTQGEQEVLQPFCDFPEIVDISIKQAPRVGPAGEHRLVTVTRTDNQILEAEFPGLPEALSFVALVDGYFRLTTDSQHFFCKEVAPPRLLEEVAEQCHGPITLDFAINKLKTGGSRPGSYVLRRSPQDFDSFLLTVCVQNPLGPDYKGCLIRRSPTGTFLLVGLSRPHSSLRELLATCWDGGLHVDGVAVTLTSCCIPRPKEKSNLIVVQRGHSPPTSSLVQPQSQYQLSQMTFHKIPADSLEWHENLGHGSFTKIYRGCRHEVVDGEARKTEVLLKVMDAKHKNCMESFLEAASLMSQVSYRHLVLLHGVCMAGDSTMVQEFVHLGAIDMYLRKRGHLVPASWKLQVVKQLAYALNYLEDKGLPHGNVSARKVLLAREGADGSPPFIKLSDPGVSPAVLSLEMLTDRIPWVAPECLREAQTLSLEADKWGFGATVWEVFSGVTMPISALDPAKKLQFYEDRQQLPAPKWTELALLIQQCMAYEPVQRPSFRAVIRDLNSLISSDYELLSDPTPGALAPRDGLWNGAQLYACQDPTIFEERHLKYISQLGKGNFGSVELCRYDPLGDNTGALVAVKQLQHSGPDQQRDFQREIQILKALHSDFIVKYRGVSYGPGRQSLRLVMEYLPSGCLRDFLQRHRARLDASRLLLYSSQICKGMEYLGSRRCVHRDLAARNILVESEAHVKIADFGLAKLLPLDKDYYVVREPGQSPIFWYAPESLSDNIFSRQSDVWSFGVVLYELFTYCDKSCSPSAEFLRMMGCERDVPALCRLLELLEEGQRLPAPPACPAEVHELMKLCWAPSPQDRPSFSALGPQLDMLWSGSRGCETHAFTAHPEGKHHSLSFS
From the text: as §1, §2

TYK2 = target: T3, TYK2 (Homo sapiens, UniProt P29597); experiment: Competition binding assay to determine binding constants (Kd), TYK2
T3 construct: made in house; host or cells: T7 phage display or HEK-293 cells (alternatives)
From the text: as §1, §2

T1 sequence (O60674 whole entry): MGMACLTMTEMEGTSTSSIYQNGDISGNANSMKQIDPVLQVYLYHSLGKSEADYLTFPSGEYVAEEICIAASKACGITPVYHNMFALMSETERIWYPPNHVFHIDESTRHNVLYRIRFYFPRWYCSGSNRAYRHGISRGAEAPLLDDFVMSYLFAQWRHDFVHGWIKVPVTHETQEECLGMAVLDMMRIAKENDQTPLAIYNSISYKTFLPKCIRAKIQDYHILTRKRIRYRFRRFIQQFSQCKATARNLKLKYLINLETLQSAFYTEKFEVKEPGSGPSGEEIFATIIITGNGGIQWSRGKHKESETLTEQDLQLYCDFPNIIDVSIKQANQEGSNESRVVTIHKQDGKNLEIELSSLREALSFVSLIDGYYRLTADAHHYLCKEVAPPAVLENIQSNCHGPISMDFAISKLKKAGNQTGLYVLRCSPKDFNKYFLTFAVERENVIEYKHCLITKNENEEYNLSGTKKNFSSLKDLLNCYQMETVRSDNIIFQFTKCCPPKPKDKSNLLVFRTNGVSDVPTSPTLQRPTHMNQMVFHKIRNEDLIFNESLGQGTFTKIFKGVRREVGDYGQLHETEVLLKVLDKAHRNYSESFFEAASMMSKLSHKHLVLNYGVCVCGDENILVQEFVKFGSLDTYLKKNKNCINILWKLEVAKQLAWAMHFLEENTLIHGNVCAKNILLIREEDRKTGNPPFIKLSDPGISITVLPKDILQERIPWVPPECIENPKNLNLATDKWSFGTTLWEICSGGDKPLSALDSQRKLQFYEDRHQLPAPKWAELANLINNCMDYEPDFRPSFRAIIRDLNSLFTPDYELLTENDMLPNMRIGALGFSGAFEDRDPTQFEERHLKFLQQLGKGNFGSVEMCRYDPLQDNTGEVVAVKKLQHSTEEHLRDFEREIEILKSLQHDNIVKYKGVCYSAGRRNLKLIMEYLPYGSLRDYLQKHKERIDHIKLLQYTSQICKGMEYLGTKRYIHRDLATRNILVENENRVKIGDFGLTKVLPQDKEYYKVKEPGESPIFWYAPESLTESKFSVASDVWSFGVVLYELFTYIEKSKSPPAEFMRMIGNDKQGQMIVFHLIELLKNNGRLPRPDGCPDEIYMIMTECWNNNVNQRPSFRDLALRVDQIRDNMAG
T3 sequence (P29597 whole entry): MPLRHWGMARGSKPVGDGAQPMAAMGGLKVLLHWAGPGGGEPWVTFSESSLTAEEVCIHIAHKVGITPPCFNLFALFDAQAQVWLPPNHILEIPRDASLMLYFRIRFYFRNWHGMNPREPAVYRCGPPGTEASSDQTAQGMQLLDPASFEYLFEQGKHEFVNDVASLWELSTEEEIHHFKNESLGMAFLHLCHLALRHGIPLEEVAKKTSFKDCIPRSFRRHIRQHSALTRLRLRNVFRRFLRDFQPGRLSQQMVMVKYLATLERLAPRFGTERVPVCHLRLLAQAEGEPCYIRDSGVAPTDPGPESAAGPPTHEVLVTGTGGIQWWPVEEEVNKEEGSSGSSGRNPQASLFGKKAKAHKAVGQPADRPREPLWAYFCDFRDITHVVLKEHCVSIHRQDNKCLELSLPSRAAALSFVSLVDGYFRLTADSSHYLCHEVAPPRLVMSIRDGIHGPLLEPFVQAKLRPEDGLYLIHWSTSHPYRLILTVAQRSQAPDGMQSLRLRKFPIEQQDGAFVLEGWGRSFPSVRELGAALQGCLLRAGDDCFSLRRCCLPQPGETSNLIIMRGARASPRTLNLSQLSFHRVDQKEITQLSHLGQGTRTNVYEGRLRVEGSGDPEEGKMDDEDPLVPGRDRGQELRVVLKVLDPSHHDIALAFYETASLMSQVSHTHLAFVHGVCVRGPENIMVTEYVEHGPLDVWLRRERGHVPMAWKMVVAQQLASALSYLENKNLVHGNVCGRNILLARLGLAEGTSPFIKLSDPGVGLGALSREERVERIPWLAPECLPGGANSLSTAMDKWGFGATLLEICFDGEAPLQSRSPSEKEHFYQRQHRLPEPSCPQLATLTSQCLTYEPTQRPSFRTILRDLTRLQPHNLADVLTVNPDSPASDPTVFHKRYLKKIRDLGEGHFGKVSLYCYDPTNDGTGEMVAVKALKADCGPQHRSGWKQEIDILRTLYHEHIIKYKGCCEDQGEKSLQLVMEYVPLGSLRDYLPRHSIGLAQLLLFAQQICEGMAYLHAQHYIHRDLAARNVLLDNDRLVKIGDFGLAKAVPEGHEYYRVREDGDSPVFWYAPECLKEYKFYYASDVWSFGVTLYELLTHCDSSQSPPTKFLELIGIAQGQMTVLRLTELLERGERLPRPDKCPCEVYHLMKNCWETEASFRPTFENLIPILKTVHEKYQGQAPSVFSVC

IC50 [1] [nM] | Kd (JAK2) [nM] | Kd (JAK3) [nM] | Kd (TYK2) [nM] | Structure (SMILES)
100 to 500 | 1 to 10 | ≤ 10 | ≤ 10 | CNc1nc2nc(C(F)(F)c3ccc(F)cc3)nc(Nc3cc(C)[nH]n3)c2s1 [Example 42, 5-(difluoro(4-fluorophenyl)methyl)-N2-methyl-N7-(5-methyl-1H-pyrazol-3-yl)thiazolo[4,5-d]pyrimidine-2,7-diamine]
≤ 100 | ≤ 1 | ≤ 10 | ≤ 10 | CCn1ccc2c(Nc3cc[nH]n3)nc(S(=O)(=O)c3ccc(F)cc3)nc21 [Example 8, 7-ethyl-2-(4-fluorophenylsulfonyl)-N-(1H-pyrazol-3-yl)-7H-pyrrolo[2,3-d]pyrimidin-4-amine]
≤ 100 | ≤ 1 | ≤ 10 | ≤ 10 | Cc1cc(Nc2nc(C(F)(F)c3ccc(F)cn3)nc3nn(C4CCCC4)cc23)n[nH]1 [Example 44, 2-cyclopentyl-6-(difluoro(5-fluoropyridin-2-yl)methyl)-N-(5-methyl-1H-pyrazol-3-yl)-2H-pyrazolo[3,4-d]pyrimidin-4-amine]
≤ 100 | ≤ 1 | ≤ 10 | ≤ 10 | CCn1ccc2c(Nc3cc(C)[nH]n3)nc(S(=O)(=O)c3ccc(F)cc3)nc21 [Example 7, 7-ethyl-2-(4-fluorophenylsulfonyl)-N-(5-methyl-1H-pyrazol-3-yl)-7H-pyrrolo[2,3-d]pyrimidin-4-amine]
≤ 100 | ≤ 1 | ≤ 10 | ≤ 10 | COCCn1ccc2c(Nc3cc(C)[nH]n3)nc(S(=O)(=O)c3ccc(F)cc3)nc21 [Example 11, 2-(4-fluorophenylsulfonyl)-7-(2-methoxyethyl)-N-(5-methyl-1H-pyrazol-3-yl)-7H-pyrrolo[2,3-d]pyrimidin-4-amine]
100 to 500 | ≤ 1 | ≤ 10 | ≤ 10 | CN(C)C(=O)Cn1ccc2c(Nc3cc[nH]n3)nc(S(=O)(=O)c3ccc(F)cc3)nc21 [Example 16, 2-(4-(1H-pyrazol-3-ylamino)-2-(4-fluorophenylsulfonyl)-7H-pyrrolo[2,3-d]pyrimidin-7-yl)-N,N-dimethylacetamide]
100 to 500 | 1 to 10 | 10 to 100 | ≤ 10 | Cc1cc(Nc2nc(C(F)(F)c3ccc(F)cc3)nc3c2cnn3CCN2CCOCC2)n[nH]1 [Example 32, 6-(difluoro(4-fluorophenyl)methyl)-N-(5-methyl-1H-pyrazol-3-yl)-1-(2-morpholinoethyl)-1H-pyrazolo[3,4-d]pyrimidin-4-amine]
100 to 500 | ≤ 1 | ≤ 10 | ≤ 10 | Cc1cc(Nc2nc(S(=O)(=O)c3ccc(F)cc3)nc3c2ccn3CCS(C)(=O)=O)n[nH]1 [Example 17, 2-(4-fluorophenylsulfonyl)-N-(5-methyl-1H-pyrazol-3-yl)-7-(2-(methylsulfonyl)ethyl)-7H-pyrrolo[2,3-d]pyrimidin-4-amine]
100 to 500 | ≤ 1 | 10 to 100 | ≤ 10 | Cc1cc(Nc2nc(C(F)(F)c3ccc(F)cc3)nc3nc(N4CCCC4)sc23)n[nH]1 [Example 36, 5-(difluoro(4-fluorophenyl)methyl)-N-(5-methyl-1H-pyrazol-3-yl)-2-(pyrrolidin-1-yl)thiazolo[4,5-d]pyrimidin-7-amine]
100 to 500 | ≤ 1 | 10 to 100 | ≤ 10 | Cc1cc(Nc2nc(C(F)(F)c3ccc(F)cn3)nc3c2cnn3C)n[nH]1 [Example 34, 6-(difluoro(5-fluoropyridin-2-yl)methyl)-1-methyl-N-(5-methyl-1H-pyrazol-3-yl)-1H-pyrazolo[3,4-d]pyrimidin-4-amine]
100 to 500 | ≤ 1 | 10 to 100 | ≤ 10 | Cc1cc(Nc2nc(S(=O)(=O)c3ccc(F)cc3)nc3[nH]ncc23)n[nH]1 [Example 27, 6-(4-fluorophenylsulfonyl)-N-(5-methyl-1H-pyrazol-3-yl)-1H-pyrazolo[3,4-d]pyrimidin-4-amine]
